In ChEMBL document CHEMBL1641424, “Synthesis and biological activity of novel 5'-arylamino-nucleosides by microwave-assisted one-pot tandem Staudinger/aza-Wittig/reduction” (Bioorg Med Chem Lett, 2011):
Activity calls are given as the source filed them. The calls are words filed in the database; no cut-off is given here.

What was measured:
[1] = target: Human immunodeficiency virus type 1 reverse transcriptase (Human immunodeficiency virus 1, UniProt Q72547); test: Inhibition of HIV1 reverse transcriptase activity after 1 hr by ELISA
HeLa = test: Cytotoxicity against human HeLa cells up to 200 uM after 48 hrs by MTT assay

Row | IC50 [1] | SMILES | Activity (HeLa)
1 | 6.13 µM | O=c1ccn([C@@H]2O[C@H](CNCc3ccccc3Cl)[C@@H](O)[C@H]2O)c(=O)[nH]1 | inactive
2 | 3.53 µM | O=c1[nH]c(=O)n([C@@H]2O[C@H](CNCc3ccccc3Cl)[C@@H](O)[C@H]2O)cc1F | inactive
3 | 4.72 µM | O=c1ccn([C@@H]2O[C@H](CNCc3c(Cl)cccc3Cl)[C@@H](O)[C@H]2O)c(=O)[nH]1 | inactive
4 | 2.82 µM | O=c1ccn([C@@H]2O[C@H](CNCc3ccc(Cl)cc3)[C@@H](O)[C@H]2O)c(=O)[nH]1 | inactive
5 | 4.84 µM | O=c1[nH]c(=O)n([C@@H]2O[C@H](CNCc3c(Cl)cccc3Cl)[C@@H](O)[C@H]2O)cc1F | inactive
6 | 3.75 µM | O=c1[nH]c(=O)n([C@@H]2O[C@H](CNCc3ccc(Cl)cc3)[C@@H](O)[C@H]2O)cc1F | inactive
7 | 3.9 µM | O=c1[nH]c(=O)n([C@@H]2O[C@H](CNCc3c(F)cccc3Cl)[C@@H](O)[C@H]2O)cc1F | inactive
8 | 4.99 µM | O=c1ccn([C@@H]2O[C@H](CNCc3c(F)cccc3Cl)[C@@H](O)[C@H]2O)c(=O)[nH]1 | inactive
